Holding throughout (test): NCI tumour cell line growth inhibition, 48 h
In assay [1] the test system is RPMI-8226 leukemia.
Assay [2] deals with SK-MEL-5 melanoma.
Assay [3] relates to UACC-62 melanoma.
Assay [4] has as its system U251 CNS.
Assay [5] deals with NCI-H23 lung.
Assay [6] deals with HT29 colon.
The test system of assay [7] is OVCAR-8 ovarian.
Assay [8] concerns ACHN renal.
Assay [9] concerns HOP-62 NSCLC.
Assay [10] deals with K-562 leukemia.

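Step 1: Grow cells in 96-well plates. Step 2: Expose to compound for 48 hours at 5 concentrations. Step 3: Interpolate endpoints linearly; if unreached, use highest concentration. Abbreviation: GI50, concentration required for 50% inhibition of growth. The concentration for full growth arrest is given as TGI.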 Some results are limits rather than exact numbers.

On to `C=CC(OCC)(OCC)OCC`, for which the TGI in assay [1], in assay [2], in [3], in [4], in [5] and in assay [6] was greater than 100 µM in each case. Moreover, the TGI in assay [7], in [8], in assay [9] and in [10] was greater than 100 µM each time.

As for `CCNC(=O)c1noc(-c2cc(C(C)C)c(O)cc2O)c1-c1ccc(CN2CCOCC2)cc1`, the GI50 was 0.0428 µM in assay [1]; 0.047 µM in [2]; 0.0333 µM in assay [3]; less than 0.0131 µM in assay [4]; 0.0535 µM in assay [5]; 0.0343 µM in assay [6]. Moreover, the GI50 in assay [7] is 0.0423 µM; in assay [8] it was 0.0373 µM; in assay [9] it was 0.0532 µM; in assay [10], less than 0.0172 µM. Besides, the TGI was 23.1 µM in [1]; 14.2 µM in assay [2]; 4.92 µM in assay [3]; 15.5 µM in assay [4]; 27.2 µM in [5]; 2.09 µM in [6]. The TGI in [7] is 28.9 µM; in assay [8], greater than 100 µM; in assay [9], 29.4 µM; in assay [10], greater than 46.3 µM.

On to `COC(=O)C1(O)CC(=O)CCC1c1ccc(OC)cc1` (centres undefined), for which the TGI in [1], in [2], in assay [3], in [4], in [5] and in assay [6] was greater than 100 µM each time. Besides, the TGI in [7], in [8], in [9] and in [10] was greater than 100 µM each time.

Regarding `CC(=O)N1CCC2(c3ccccc3N(C(C)=O)C2c2ccc(O)cc2)C1C(=O)O` (centres undefined), the TGI in [1], in assay [2], in assay [3], in assay [4], in [5] and in assay [6] was greater than 100 µM in each case. The TGI in assay [7], in assay [8], in [9] and in assay [10] was greater than 100 µM in each case.

Take `C=C1C[C@@H]2CC[C@@]34C[C@H]5O[C@H]6[C@@H](O3)[C@H]3O[C@H](CC[C@@H]3O[C@H]6[C@@H]5O4)CC(=O)C[C@@H]3[C@@H](OC)[C@@H](C[C@H](O)CN)O[C@H]3C[C@H]3O[C@@H](CC[C@@H]1O2)C[C@@H](C)C3=C`: the GI50 is less than 0.01 µM in assay [1]; less than 0.0135 µM in [2]; less than 0.01 µM in assay [3]; less than 0.01 µM in assay [4]; less than 0.01 µM in assay [5]; less than 0.01 µM in assay [6]. Also, the GI50 in [7] was less than 0.0153 µM; in [8], 0.158 µM; in assay [9], less than 0.0115 µM; in assay [10], less than 0.01 µM. The TGI in [2] was 1.11 µM; in assay [3], greater than 100 µM; in [4], greater than 100 µM; in assay [5], greater than 100 µM; in assay [6], greater than 100 µM; in [7], greater than 100 µM. In addition, the TGI in assay [8], in assay [9] and in [10] was greater than 100 µM in each case.

On to `O=c1c(F)cn(Cc2ccccc2CCl)c(=O)n1Cc1ccccc1CCl`, for which the GI50 in assay [1] is 0.795 µM; in [2] it was 1.65 µM; in assay [3] it was 1.33 µM; in assay [4], 1.55 µM; in [5], 2.42 µM; in assay [6] it was 2.01 µM. The GI50 in [7] was 0.977 µM; in assay [8] it was 1.58 µM; in assay [9] it was 2.35 µM; in assay [10], 1.89 µM. The TGI in assay [1] is 8.46 µM; in [2] it was 3.44 µM; in assay [3] it was 2.94 µM; in assay [4], 3.49 µM; in [5] it was 7.05 µM; in assay [6], 4.71 µM. The TGI in [7] was 2.99 µM; in [8] it was 3.04 µM; in [9], 4.84 µM; in assay [10], greater than 100 µM.

Take `Cc1nc(C(N)=S)sc1C(=O)/C=C/c1c(O)ccc2ccccc12`: the TGI in assay [1] was greater than 93.5 µM; in assay [2], greater than 100 µM; in assay [3], greater than 87.9 µM; in assay [4], greater than 100 µM; in assay [5], greater than 100 µM; in [6] it was greater than 100 µM. For the same compound, the TGI in assay [7] was greater than 100 µM; in [8] it was greater than 100 µM; in [9], greater than 100 µM; in [10], greater than 64.7 µM.

For `Nc1ccc(/C=C/C(=O)NCc2cc3cc(-c4ccc(C(=O)N5CCC(F)(F)CC5)cc4)cc(-c4ccc(F)cc4)c3o2)cn1`, the GI50 in assay [1] was 0.563 µM; in assay [2], 14.2 µM; in [3], greater than 100 µM; in assay [4], 1.16 µM; in assay [5] it was greater than 100 µM; in assay [6] it was 1.89 µM. The GI50 in [7] is 0.0404 µM; in assay [8], 83.9 µM; in assay [9], greater than 59.3 µM; in assay [10], 0.356 µM. Moreover, the TGI in assay [1], in assay [2], in [3], in assay [4], in [5] and in assay [6] was greater than 100 µM each time. The TGI in assay [7], in assay [8], in assay [9] and in assay [10] was greater than 100 µM each time.

For the compound `O=C(N/N=C/c1ccccc1O)c1ccccc1`, the GI50 in assay [1] is 0.583 µM; in [2], 2.97 µM; in assay [3] it was 1.87 µM; in assay [4], 1.94 µM; in assay [5], 4.92 µM; in assay [6], 3.43 µM. The GI50 is 3.46 µM in [7], 2.08 µM in assay [8], 1.61 µM in assay [9] and 3.59 µM in [10]. Also, the TGI in assay [1] was 8.52 µM; in assay [2], greater than 100 µM; in assay [3], 7.16 µM; in [4] it was greater than 100 µM; in assay [5], greater than 100 µM; in assay [6], greater than 100 µM. For the same compound, the TGI in assay [7] is greater than 100 µM; in assay [8] it was 54.2 µM; in assay [9], 8.61 µM; in assay [10], greater than 100 µM.

The values above are taken from PubChem BioAssay (NCI).
